Experimental data taken from ChEMBL document CHEMBL1142232, “Inhibition of spinal microglial cathepsin S for the reversal of neuropathic pain” (Proc Natl Acad Sci U S A, 2007).
Active and inactive are the calls of the source. Where a SMILES comes first, the peptide text is derived from it. [ ]: non-standard residue; d: D form. Oic = O=C(O)[C@@H]1C[C@@H]2CCCC[C@@H]2N1; Hyp = O=C(O)[C@@H]1C[C@@H](O)CN1; dTic = O=C(O)[C@H]1Cc2ccccc2CN1; 2Thi = N[C@@H](Cc1cccs1)C(=O)O

Tests used:
[1] = species on record: Rattus norvegicus; test: Inhibition of rat recombinant cathepsin S-induced hyperalgesia in Wistar rat at 50 ug; format: functional, organism-based
[2] = system: Rattus norvegicus; test: Inhibition of rat recombinant cathepsin S-induced hyperalgesia in naive Wistar rat at 50 nmol administered 30 mins before cathepsin S challenge; format: functional, organism-based
[3] = system: Rattus norvegicus; test: Analgesic activity in intrathecally dosed Wistar rat partial ligation of sciatic nerve neuropathic pain model assessed as attenuation of allodynia at 50 nmol after 7 days; format: functional, organism-based
[4] = system: Rattus norvegicus; test: Analgesic activity in intrathecally dosed Wistar rat partial ligation of sciatic nerve neuropathic pain model assessed as reduction of mechanical hyperalgesia at 10 nmol after 14 days; format: functional, organism-based
[5] = system: Rattus norvegicus; test: Analgesic activity in intrathecally dosed Wistar rat partial ligation of sciatic nerve neuropathic pain model assessed as reduction of mechanical hyperalgesia at 50 nmol after 14 days; format: functional, organism-based
[6] = species on record: Rattus norvegicus; test: Effect on sarcosine-induced hyperalgesia in Wistar rat; format: functional, organism-based
[7] = species on record: Rattus norvegicus; test: Toxicity in Wistar rat assessed as effect on motor behavior by rotarod test; format: organism-based; conditions: in vivo
[8] = system: Rattus norvegicus; test: Effect on contralateral mechanical thresholds in intrathecally dosed Wistar rat partial ligation of sciatic nerve neuropathic pain model; format: functional, organism-based
[9] = species on record: Rattus norvegicus; test: Effect on NMDA-induced hyperalgesia in Wistar rat; format: functional, organism-based
[10] = species on record: Rattus norvegicus; test: Reduction of microglial activation in Wistar rat partial ligation of sciatic nerve neuropathic pain model at 30 nmol; format: functional, organism-based
[11] = species on record: Rattus norvegicus; test: Analgesic activity in Wistar rat partial ligation of sciatic nerve model of neuropathic pain assessed as reversal of allodynia at 30 nmol after 3 to 5 days; format: functional, organism-based
[12] = species on record: Rattus norvegicus; test: Analgesic activity in Wistar rat partial ligation of sciatic nerve model of neuropathic pain assessed as reversal of allodynia at 30 nmol after 7 days; format: functional, organism-based
[13] = system: Rattus norvegicus; test: Antinociceptive activity in intrathecally dosed Wistar rat partial ligation of sciatic nerve 3-day neuropathic pain model assessed as alteration of mechanical allodynia at 50 nmol; format: functional, organism-based
[14] = system: Rattus norvegicus; test: Analgesic activity in intrathecally dosed Wistar rat partial ligation of sciatic nerve neuropathic pain model assessed as attenuation of allodynia at 50 nmol after 14 days; format: functional, organism-based

SMILES	Activity [1]	Activity [2]	Activity [3]	Activity [4]	Activity [5]	Activity [6]	Activity [7]	Activity [8]	Activity [9]	Activity [10]	Activity [11]	Activity [12]	Activity [13]	Activity [14]
N=C(N)NCCC[C@@H](N)C(=O)N[C@@H](CCCNC(=N)N)C(=O)N1CCC[C@H]1C(=O)N1C[C@H](O)C[C@H]1C(=O)NCC(=O)N[C@@H](Cc1cccs1)C(=O)N[C@@H](CO)C(=O)N1Cc2ccccc2C[C@@H]1C(=O)N1[C@H](C(=O)N[C@@H](CCCNC(=N)N)C(=O)O)C[C@@H]2CCCC[C@@H]21	inactive	inactive												
CC(C)C[C@@H](NC(=O)N1CCOCC1)C(=O)N[C@@H](/C=C/S(=O)(=O)c1ccccc1)CCc1ccccc1		inactive	Active	Active	Active	inactive	Non-toxic	inactive	inactive	Active	inactive	Active	inactive	Active
N=C(N)NCCC[C@@H](N)C(=O)N[C@@H](CCCNC(=N)N)C(=O)N1CCC[C@H]1C(=O)N1C[C@H](O)C[C@H]1C(=O)NCC(=O)N[C@@H](Cc1cccs1)C(=O)N[C@@H](CO)C(=O)N1Cc2ccccc2C[C@@H]1C(=O)N1[C@H](C(=O)O)C[C@@H]2CCCC[C@@H]21 (H-[dR]RP[Hyp]G[2Thi]S[dTic][Oic]-OH)	inactive	inactive												
